Laboratory results published in patent publication US12599672B2, “KRAS proteolysis targeting chimeras” (PAQ Therapeutics Inc., priority 2023, dated 2026).

What was measured:
KRAS G12D = biological target: T1, KRAS G12D (Homo sapiens, UniProt P01116, G12D); assay: KRAS G12D HiBit assay; assay type: cell-based; details: AsPc-1-KRAS (G12D)-HiBit-KI cell, compound treatment for 24 hours; for DC50: absolute DC50
T1 construct: AsPc-1-KRAS (G12D)-HiBit-KI cell (Pharmaron); host or cells: AsPc-1-KRAS (G12D)-HiBit-KI cells (HiBiT knock-in at the endogenous KRAS locus)
T1 sequence (P01116 1-188 isoform P01116-2 G12D): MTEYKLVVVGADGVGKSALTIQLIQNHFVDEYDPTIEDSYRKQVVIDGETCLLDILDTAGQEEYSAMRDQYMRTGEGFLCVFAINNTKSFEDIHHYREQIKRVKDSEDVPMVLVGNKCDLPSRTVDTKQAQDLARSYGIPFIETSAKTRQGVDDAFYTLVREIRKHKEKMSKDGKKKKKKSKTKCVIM
How it was run: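 Cells were treated for 24 h with compounds in a 3-fold, 10-point dilution series from a 0.3 mM DMSO stock, then equilibrated 15 min at room temperature. KRAS G12D HiBiT levels were read by luminescence after lytic Nano-Glo HiBiT reagent with LgBiT; inhibition calculated relative to 0.1% DMSO high control.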

KRAS G12V = biological target: T2, KRAS G12V (Homo sapiens, UniProt P01116, G12V); assay: KRAS G12V HiBit assay; assay type: cell-based; details: SW620-KRAS (G12V)-HiBit-KI cells, compound treatment for 24 hours, class symbols
T2 construct: SW620-KRAS (G12V)-HiBit-KI cell (Pharmaron); host or cells: SW620-KRAS (G12V)-HiBit-KI cells (HiBiT knock-in at the endogenous KRAS locus)
T2 sequence (P01116 1-188 isoform P01116-2 G12V): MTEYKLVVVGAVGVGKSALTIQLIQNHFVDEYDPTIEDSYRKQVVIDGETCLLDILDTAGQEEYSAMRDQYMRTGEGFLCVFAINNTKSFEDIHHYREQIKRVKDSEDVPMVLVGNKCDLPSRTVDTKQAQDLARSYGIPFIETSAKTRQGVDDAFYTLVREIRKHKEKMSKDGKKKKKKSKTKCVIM
How it was run: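 HiBiT-tagged KRAS G12V cells treated 24 h with compound in a 3-fold, 10-point series (0.3 mM DMSO stock); lytic HiBiT reagent with LgBiT added after 15 min room-temperature equilibration. Degradation calculated against 0.1% DMSO high control.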

Row | SMILES | DC50 (KRAS G12D; class symbols) [nM] | DC50 (KRAS G12V) [nM] | Dmax (KRAS G12D; class symbols) [%] | DC50 (KRAS G12D; numeric bounds given in place of class symbols) [nM]
1 | CCc1c(F)ccc2cc(O)cc(-c3ncc4c(N5CCC[C@@](C)(O)C5)nc(OC[C@@]56CCCN5[C@H](COC(=O)N5CCC(N7CC8(CCC(c9ccc%10c(c9)n(C)c(=O)n%10C9CCC(=O)NC9=O)CC8)C7)CC5)CC6)nc4c3F)c12 (stereo partly drawn) [Compound 363, ((3S,7aS)-7a-(((7-(8-ethyl-7-fluoro-3-hydroxynaphthalen-1-yl)-8-fluoro-4-((R)-3-hydroxy-3-methylpiperidin-1-yl)pyrido[4,3-d]pyrimidin-2-yl)oxy)methyl)hexahydro-1H-pyrrolizin-3-yl)methyl 4-(7-(1-(2,6-dioxopiperidin-3-yl)-3-methyl-2-oxo-2,3-dihydro-1H-benzo[d]imidazol-5-yl)-2-azaspiro[3.5]nonan-2-yl)piperidine-1-carboxylate] | < 100 | < 10 |  | 
2 | C#Cc1c(F)ccc2cccc(-c3ncc4c(N5CCC[C@@](C)(O)C5)nc(OC[C@@]56CCCN5[C@H](COC(=O)N5CCC(N7CCC(c8ccc9c(c8)n(C)c(=O)n9C8CCC(=O)NC8=O)CC7)CC5)CC6)nc4c3F)c12 (stereo partly drawn) [Compound 128, ((3S,7aS)-7a-(((7-(8-Ethynyl-7-fluoronaphthalen-1-yl)-8-fluoro-4-((R)-3-hydroxy-3-methylpiperidin-1-yl)pyrido[4,3-d]pyrimidin-2-yl)oxy)methyl)hexahydro-1H-pyrrolizin-3-yl)methyl 4-(1-(2,6-dioxopiperidin-3-yl)-3-methyl-2-oxo-2,3-dihydro-1H-benzo[d]imidazol-5-yl)-[1,4′-bipiperidine]-1′-carboxylate] | > 300 | > 100 |  | 
3 | CCc1c(F)ccc2cc(O)cc(-c3ncc4c(N5CCC[C@@](C)(O)C5)nc(OC[C@@]56CCCN5[C@H](CCCN5CCC7(CC5)CC(N5CCC(c8ccc9c(c8)n(C)c(=O)n9C8CCC(=O)NC8=O)CC5)C7)CC6)nc4c3F)c12 (stereo partly drawn) [Compound 472, 3-(5-(1-(7-(3-((3R,7aS)-7a-(((7-(8-Ethyl-7-fluoro-3-hydroxynaphthalen-1-yl)-8-fluoro-4-((R)-3-hydroxy-3-methylpiperidin-1-yl)pyrido[4,3-d]pyrimidin-2-yl)oxy)methyl)hexahydro-1H-pyrrolizin-3-yl)propyl)-7-azaspiro[3.5]nonan-2-yl)piperidin-4-yl)-3-methyl-2-oxo-2,3-dihydro-1H-benzo[d]imidazol-1-yl) piperidine-2,6-dione] | < 100 | 10 to 100 |  | 
4 | C#Cc1c(F)ccc2cc(O)cc(-c3ncc4c(N5CCC[C@@](C)(O)C5)nc(OCC5(CN6CCN(Cc7ccc8c(c7)n(C)c(=O)n8C7CCC(=O)NC7=O)CC6)CC5)nc4c3F)c12 (stereo partly drawn) [Compound 42] | > 300 | > 100 |  | 
5 | C#Cc1c(F)ccc2cc(O)cc(-c3ncc4c(N5CCOCC5)nc(OCC5(CN6CCN(CC7CCN(c8ccc9c(c8)n(C)c(=O)n9C8CCC(=O)NC8=O)CC7)CC6)CC5)nc4c3F)c12 (stereo not drawn) [Compound 18, 3-[5-[4-[[4-[[1-[[7-(8-Ethynyl-7-fluoro-3-hydroxy-1-naphthyl)-8-fluoro-4-morpholino-pyrido[4,3-d]pyrimidin-2-yl]oxymethyl]cyclopropyl]methyl]piperazin-1-yl]methyl]-1-piperidyl]-3-methyl-2-oxo-benzimidazol-1-yl]piperidine-2,6-dione] | > 300 | > 100 | 15 to 50 | 
6 | CCc1c(F)ccc2cc(O)cc(-c3ncc4c(N5CCC[C@@](C)(O)C5)nc(OC[C@@]56CCCN5[C@H](COC(=O)N5CCC(N7CCC(Oc8ccc9c(c8)n(C)c(=O)n9C8CCC(=O)NC8=O)CC7)CC5)CC6)nc4c3F)c12 (stereo partly drawn) [Compound 439, ((3S,7aS)-7a-(((7-(8-ethyl-7-fluoro-3-hydroxynaphthalen-1-yl)-8-fluoro-4-((R)-3-hydroxy-3-methylpiperidin-1-yl)pyrido[4,3-d]pyrimidin-2-yl)oxy)methyl)hexahydro-1H-pyrrolizin-3-yl)methyl 4-((1-(2,6-dioxopiperidin-3-yl)-3-methyl-2-oxo-2,3-dihydro-1H-benzo[d]imidazol-5-yl)oxy)-[1,4′-bipiperidine]-1′-carboxylate] | < 100 | < 10 |  | 
7 | CCc1c(F)ccc2cc(O)cc(-c3ncc4c(N5CCC[C@@](C)(O)C5)nc(OC[C@@]56CCCN5[C@H](COC(=O)N5CCC(N7CC8(CC(c9ccc%10c(c9)n(C)c(=O)n%10C9CCC(=O)NC9=O)C8)C7)CC5)CC6)nc4c3F)c12 (stereo partly drawn) [Compound 365, ((3S,7aS)-7a-(((7-(8-ethyl-7-fluoro-3-hydroxynaphthalen-1-yl)-8-fluoro-4-((R)-3-hydroxy-3-methylpiperidin-1-yl)pyrido[4,3-d]pyrimidin-2-yl)oxy)methyl)hexahydro-1H-pyrrolizin-3-yl)methyl 4-(6-(1-(2,6-dioxopiperidin-3-yl)-3-methyl-2-oxo-2,3-dihydro-1H-benzo[d]imidazol-5-yl)-2-azaspiro[3.3]heptan-2-yl)piperidine-1-carboxylate] | < 100 | < 10 |  | 
8 | CCc1c(F)ccc2cccc(-c3ncc4c(N5CCC[C@@](C)(O)C5)nc(OC[C@@]56CCCN5[C@H](COC(=O)N5CCC(CN7CCC(c8ccc9c(c8)n(C)c(=O)n9C8CCC(=O)NC8=O)CC7)CC5)CC6)nc4c3F)c12 (stereo partly drawn) [Compound 94, [(3S,8S)-8-[[7-(8-ethyl-7-fluoro-1-naphthyl)-8-fluoro-4-[(3R)-3-hydroxy-3-methyl-1-piperidyl]pyrido[4,3-d]pyrimidin-2-yl]oxymethyl]-1,2,3,5,6,7-hexahydropyrrolizin-3-yl]methyl-4-[[4-[1-(2,6-dioxo-3-piperidyl)-3-methyl-2-oxo-benzimidazol-5-yl]-1-piperidyl]methyl]piperidine-1-carboxylate] | < 100 | > 100 | > 50 | 
9 | C#Cc1c(F)ccc2cc(O)cc(-c3ncc4c(N5CCC[C@@](C)(O)C5)nc(OC[C@@]56CCCN5[C@H](COC(=O)N5CCN(CC#CCOc7cccc8c7n(C)c(=O)n8C7CCC(=O)NC7=O)CC5)CC6)nc4c3F)c12 (stereo partly drawn) [Compound 376, ((3S,7aS)-7a-(((7-(8-ethynyl-7-fluoro-3-hydroxynaphthalen-1-yl)-8-fluoro-4-((R)-3-hydroxy-3-methylpiperidin-1-yl)pyrido[4,3-d]pyrimidin-2-yl)oxy)methyl)hexahydro-1H-pyrrolizin-3-yl)methyl 4-(4-((1-(2,6-dioxopiperidin-3-yl)-3-methyl-2-oxo-2,3-dihydro-1H-benzo[d]imidazol-4-yl)oxy)but-2-yn-1-yl)piperazine-1-carboxylate] |  | > 100 |  | > 100
10 | C#Cc1c(F)ccc2cc(O)cc(-c3ncc4c(N5CCC[C@@](C)(O)C5)nc(OCC5(CN6CCC7(CC6)CN(c6ccc8c(c6)n(C)c(=O)n8C6CCC(=O)NC6=O)C7)CC5)nc4c3F)c12 (stereo partly drawn) [Compound 33] | > 300 | > 100 |  | 
11 | C#Cc1c(F)ccc2cc(O)cc(-c3ncc4c(N5CCC[C@@](C)(O)C5)nc(OC[C@@]56CCCN5[C@H](COC(=O)N5CCC(OCCC#Cc7cccc8c7n(C)c(=O)n8C7CCC(=O)NC7=O)CC5)CC6)nc4c3F)c12 (stereo partly drawn) [Compound 127, ((3S,7aS)-7a-(((7-(8-Ethynyl-7-fluoro-3-hydroxynaphthalen-1-yl)-8-fluoro-4-((R)-3-hydroxy-3-methylpiperidin-1-yl)pyrido[4,3-d]pyrimidin-2-yl)oxy)methyl)hexahydro-1H-pyrrolizin-3-yl)methyl 4-((4-(1-(2,6-dioxopiperidin-3-yl)-3-methyl-2-oxo-2,3-dihydro-1H-benzo[d]imidazol-4-yl)but-3-yn-1-yl)oxy)piperidine-1-carboxylate] | < 100 | 10 to 100 |  | 
12 | CCc1c(F)ccc2cc(O)cc(-c3ncc4c(N5CCC[C@@](C)(O)C5)nc(OC[C@@]56CCCN5[C@H](COc5ccc(CCN7CCC(c8ccc9c(c8)n(C)c(=O)n9C8CCC(=O)NC8=O)CC7)cc5)CC6)nc4c3F)c12 (stereo partly drawn) [Compound 499, 3-(5-(1-(4-(((3S,7aS)-7a-(((7-(8-Ethyl-7-fluoro-3-hydroxynaphthalen-1-yl)-8-fluoro-4-((R)-3-hydroxy-3-methylpiperidin-1-yl)pyrido[4,3-d]pyrimidin-2-yl)oxy)methyl)hexahydro-1H-pyrrolizin-3-yl)methoxy)phenethyl)piperidin-4-yl)-3-methyl-2-oxo-2,3-dihydro-1H-benzo[d]imidazol-1-yl) piperidine-2,6-dione] | < 100 | 10 to 100 |  | 
13 | CCc1c(F)ccc2cc(O)cc(-c3ncc4c(N5CCC[C@@](C)(O)C5)nc(OC[C@@]56CCCN5[C@H](COC(=O)N5CCC(CN7CC8(CCC(c9ccc%10c(c9)n(C)c(=O)n%10C9CCC(=O)NC9=O)CC8)C7)CC5)CC6)nc4c3F)c12 (stereo partly drawn) [Compound 364, ((3S,7aS)-7a-(((7-(8-ethyl-7-fluoro-3-hydroxynaphthalen-1-yl)-8-fluoro-4-((R)-3-hydroxy-3-methylpiperidin-1-yl)pyrido[4,3-d]pyrimidin-2-yl)oxy)methyl)hexahydro-1H-pyrrolizin-3-yl)methyl 4-((7-(1-(2,6-dioxopiperidin-3-yl)-3-methyl-2-oxo-2,3-dihydro-1H-benzo[d]imidazol-5-yl)-2-azaspiro[3.5]nonan-2-yl)methyl)piperidine-1-carboxylate] | < 100 | < 10 |  | 
14 | C#Cc1c(F)ccc2cccc(-c3ncc4c(N5CCC[C@@](C)(O)C5)nc(OC[C@]56CCCN5[C@@H](COC(=O)N5CCC(CN7CCC(c8ccc9c(c8)n(C)c(=O)n9C8CCC(=O)NC8=O)CC7)CC5)CC6)nc4c3F)c12 (stereo partly drawn) [Compound 131] | > 300 | > 100 |  | 
